Laboratory results taken from US20080064723A1, “Anti-Hair Graying Agent” (SHISEIDO COMPANY, LTD., priority 2004, published 2008).

Test system: humans
Test: Human anti-hair graying effect test
Format: in vivo
Details: 0.25% sample applied on scalps of 10 male subjects, two times per day, 2 ml per time, six months; after use vs before use
Description: As the test substances, compounds 1, 2 and 3 were used. Each test substance was dissolved in a mixed solution of an aqueous 70% ethanol solution plus 1% 1,3-butylene glycol and the resultant mixture used as the sample (test substance concentration: 0.25%).
The number of gray hairs among approximately 1000 hairs was counted before and after use of each sample. The changes of the ratios were used to compare the anti-hair graying actions. Specifically, each sample was applied on the scalps of 10 male subjects two times per day, 2 ml per time, continuously for six months. One thousand hairs of each of the subjects were counted divided into black hairs and gray hairs before the application and right after the end of six months after termination of the application to investigate the hair graying rate. The ratios (%) of the subjects where the hair graying rates after use declined 20% or more compared with before use, changed within ±20% or increased by 20% or more were respectively calculated.

NC1CCC(C(=O)O)CC1 (stereo not drawn) [Compound 1, 4-aminocyclohexane carboxylic acid]
Hair graying rate: Changing within ±20% (ratio of subjects): 30% | Hair graying rate: Declining 20% or more (ratio of subjects): 70% | Hair graying rate: Increasing 20% or more (ratio of subjects): 0%

O=C(O)C1CCNCC1 [Compound 2, 4-piperidine carboxylic acid]
Hair graying rate: Changing within ±20% (ratio of subjects): 30% | Hair graying rate: Declining 20% or more (ratio of subjects): 60% | Hair graying rate: Increasing 20% or more (ratio of subjects): 10%

CCOC(=O)C1CCNCC1 [Compound 3, 4-piperidine carboxylic acid ethyl ester]
Hair graying rate: Changing within ±20% (ratio of subjects): 20% | Hair graying rate: Declining 20% or more (ratio of subjects): 70% | Hair graying rate: Increasing 20% or more (ratio of subjects): 10%
